Experimental data: patent US11873295B2, “Allosteric chromenone inhibitors of phosphoinositide 3-kinase (PI3K) for the treatment of disease” (Petra Pharma Corporation, priority 2021, dated 2024)

Key:
[1] = target: T1, human full length PIK3KA Wild-type (p110α/p85α complex) (Homo sapiens, UniProt P42336); assay: PI3K-alpha kinase (PIK3CA) biochemical activity, wild-type, ADP-Glo; conditions: PI3K-α (PIK3CA) biochemical, Soy PI lipid substrate
T1 construct: Recombinant, catalytically active human full length PIK3KA Wild-type and H1047R mutant were purchased as 1:1 complex; 6xHis (N); purchased EMD Millipore Sigma 14-602M
In short: (§1)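 ADP formation, read by ADP-Glo, is run to about 10% ATP turnover at 27 °C with 20 μM ATP and 50 μM PIP2diC8 or soy PI. WT or H1047R p110α/p85α (1–5 nM) is pre-incubated 1 h with compound in HEPES pH 7.4/MgCl2/Triton buffer, 1% DMSO. 10-point 1:3 series, logistic IC50 versus no-enzyme and DMSO controls.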

[2] = target: T2, human full length PIK3KA H1047R mutant (p110α/p85α complex) (Homo sapiens, UniProt P42336, H1047R); assay: PI3K-alpha kinase (PIK3CA) biochemical activity, H1047R mutant, ADP-Glo; conditions: PI3K-α (PIK3CA) biochemical, H1047R mutant, Soy PI lipid substrate
T2 construct: Recombinant, catalytically active human full length PIK3KA Wild-type and H1047R mutant were purchased as 1:1 complex; 6xHis (N); purchased EMD Millipore Sigma 14-792M
In short: as §1

[3] = system: PI3K-α (PIK3CA) in MDA-MB-453 cells; assay: PI3K-alpha kinase (PIK3CA) activity in vitro cell based assay, MDA-MB-453 cells, AlphaLisa SureFire; conditions: 0% FBS, 3 hours treatment, relative IC50
In short: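 MDA-MB-453 cells in serum-free MEM with 1 μg/mL insulin treated 3 h with 10-point 1:3 compound dilutions, 0.3% DMSO. Lysates read by AlphaLisa SureFire; percent inhibition relative to DMSO (max) and 1 μM GDC-0032 (min), duplicate means fitted to 4-parameter logistic for relative IC50.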

T2 sequence (P42336 whole entry H1047R): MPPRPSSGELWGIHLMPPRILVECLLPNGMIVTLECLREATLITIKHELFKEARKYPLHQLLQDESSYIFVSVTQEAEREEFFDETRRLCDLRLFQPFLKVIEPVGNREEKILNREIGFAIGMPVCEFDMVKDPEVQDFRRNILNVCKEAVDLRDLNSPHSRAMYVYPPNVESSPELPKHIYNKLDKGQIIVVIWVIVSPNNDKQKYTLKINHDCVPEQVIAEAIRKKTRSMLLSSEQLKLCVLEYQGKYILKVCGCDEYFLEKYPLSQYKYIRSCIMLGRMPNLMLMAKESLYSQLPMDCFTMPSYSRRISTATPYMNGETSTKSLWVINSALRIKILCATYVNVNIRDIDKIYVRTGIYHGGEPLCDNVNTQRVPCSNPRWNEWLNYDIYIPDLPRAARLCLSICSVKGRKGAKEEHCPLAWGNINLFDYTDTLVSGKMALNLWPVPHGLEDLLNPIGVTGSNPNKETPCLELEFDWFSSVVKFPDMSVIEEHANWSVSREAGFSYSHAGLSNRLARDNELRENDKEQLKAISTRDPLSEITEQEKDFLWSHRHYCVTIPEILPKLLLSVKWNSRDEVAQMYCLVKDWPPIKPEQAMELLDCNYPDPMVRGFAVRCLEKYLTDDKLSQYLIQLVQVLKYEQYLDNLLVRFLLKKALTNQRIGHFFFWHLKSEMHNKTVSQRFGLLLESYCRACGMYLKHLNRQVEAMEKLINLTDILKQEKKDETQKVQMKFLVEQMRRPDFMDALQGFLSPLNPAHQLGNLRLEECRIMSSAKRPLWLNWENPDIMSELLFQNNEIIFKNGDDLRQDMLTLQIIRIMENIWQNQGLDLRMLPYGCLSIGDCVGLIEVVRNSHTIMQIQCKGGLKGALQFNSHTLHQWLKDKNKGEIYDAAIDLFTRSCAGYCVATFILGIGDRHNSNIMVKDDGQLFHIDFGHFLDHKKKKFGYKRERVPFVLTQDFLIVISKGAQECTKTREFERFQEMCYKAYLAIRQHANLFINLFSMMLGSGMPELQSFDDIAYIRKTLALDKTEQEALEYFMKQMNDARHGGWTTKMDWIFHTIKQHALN
T2 sequence (P27986 whole entry partner): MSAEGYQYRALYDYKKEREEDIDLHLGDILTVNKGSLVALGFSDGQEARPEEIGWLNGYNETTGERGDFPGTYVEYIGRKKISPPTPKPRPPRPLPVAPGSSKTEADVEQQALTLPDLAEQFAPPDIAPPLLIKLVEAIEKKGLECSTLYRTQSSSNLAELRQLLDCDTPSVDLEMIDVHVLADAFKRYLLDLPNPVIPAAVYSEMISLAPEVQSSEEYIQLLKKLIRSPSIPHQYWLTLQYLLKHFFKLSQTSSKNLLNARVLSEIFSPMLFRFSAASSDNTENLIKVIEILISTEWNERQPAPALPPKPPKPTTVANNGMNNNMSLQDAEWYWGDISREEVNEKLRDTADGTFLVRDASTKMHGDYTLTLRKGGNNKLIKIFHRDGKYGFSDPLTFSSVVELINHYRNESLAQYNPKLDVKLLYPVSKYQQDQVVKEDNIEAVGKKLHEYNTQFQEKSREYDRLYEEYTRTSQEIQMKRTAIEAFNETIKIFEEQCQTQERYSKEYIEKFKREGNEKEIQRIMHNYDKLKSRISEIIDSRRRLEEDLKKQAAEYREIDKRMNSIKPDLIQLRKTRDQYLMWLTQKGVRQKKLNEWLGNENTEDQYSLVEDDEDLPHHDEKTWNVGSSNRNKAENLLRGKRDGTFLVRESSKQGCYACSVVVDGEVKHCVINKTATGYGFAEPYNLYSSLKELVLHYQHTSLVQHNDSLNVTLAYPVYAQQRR

**Q.** Cc1cc(C(C)Nc2cccc(F)c2C(=O)O)c2oc(-c3cccc(F)c3)c(C)c(=O)c2c1 (stereo not drawn) [Example 95, 2-Fluoro-6-[1-[2-(3-fluorophenyl)-3,6-dimethyl-4-oxo-chromen-8-yl]ethylamino]benzoic acid 2,2,2-trifluoroacetic acid] was tested. Which IC50 [1] did it give?
**A.** 1000 to 5000 nM

**Q.** And the IC50 [2]?
**A.** < 500 nM

**Q.** And the IC50 ([3]; Homo sapiens, MDA-MB-453, 3 h)?
**A.** < 50 nM

**Q.** Cc1c(-c2ccc(F)c(F)c2)oc2c([C@@H](C)Nc3ccc(Cl)nc3C(=O)O)cc(C(F)(F)F)cc2c1=O [Example 96, 6-Chloro-3-[[(1R)-1-[2-(3,4-difluorophenyl)-3-methyl-4-oxo-6-(trifluoromethyl)-chromen-8-yl]ethyl]amino]pyridine-2-carboxylic acid] was tested. Which IC50 [1] did it give?
**A.** 1000 to 5000 nM

**Q.** What about the IC50 [2] of the same compound?
**A.** < 500 nM

**Q.** What about the IC50 ([3]; Homo sapiens, MDA-MB-453, 3 h) of the same compound?
**A.** < 50 nM

**Q.** With Cc1c(-c2ccccc2F)oc2c([C@@H](C)Nc3ccc(Cl)nc3C(=O)O)cc(C(F)(F)F)cc2c1=O [Example 98, 6-Chloro-3-[[(1R)-1-[2-(2-fluorophenyl)-3-methyl-4-oxo-6-(trifluoromethyl)-chromen-8-yl]ethyl]amino]pyridine-2-carboxylic acid] as the compound, how does the IC50 [1] read?
**A.** 1000 to 5000 nM

**Q.** And the IC50 [2]?
**A.** < 500 nM

**Q.** What about the IC50 ([3]; Homo sapiens, MDA-MB-453, 3 h) of the same compound?
**A.** < 50 nM

**Q.** For Cc1c(-c2ccc(F)cc2F)oc2c([C@@H](C)Nc3ccc(Cl)nc3C(=O)O)cc(C(F)(F)F)cc2c1=O [Example 99, 6-Chloro-3-[[(1R)-1-[2-(2,4-difluorophenyl)-3-methyl-4-oxo-6-(trifluoromethyl)-chromen-8-yl]ethyl]amino]pyridine-2-carboxylic acid], which IC50 [1] is on record?
**A.** 500 to 1000 nM

**Q.** And the IC50 [2]?
**A.** < 500 nM

**Q.** What about the IC50 ([3]; Homo sapiens, MDA-MB-453, 3 h) of the same compound?
**A.** < 50 nM

**Q.** Cc1cc(C(C)Nc2ccc(C)nc2C(=O)O)c2oc(-c3ccccc3)c(C(F)(F)F)c(=O)c2c1 (stereo not drawn) [Example 101, 6-Methyl-3-[1-[6-methyl-4-oxo-2-phenyl-3-(trifluoromethyl)-chromen-8-yl]ethylamino]pyridine-2-carboxylic acid 2,2,2-trifluoroacetic acid] was tested. Which IC50 [1] did it give?
**A.** < 500 nM

**Q.** What about the IC50 [2] of the same compound?
**A.** < 500 nM

**Q.** What about the IC50 ([3]; Homo sapiens, MDA-MB-453, 3 h) of the same compound?
**A.** < 50 nM

**Q.** With Cc1c(-c2ccccc2)oc2c([C@@H](C)Nc3ccccc3C(=O)O)cc(C(F)(F)F)cc2c1=O [Example 102, 2-[[(1R)-1-[3-Methyl-4-oxo-2-phenyl-6-(trifluoromethyl)-chromen-8-yl]ethyl]amino]benzoic acid] as the compound, how does the IC50 [1] read?
**A.** 1000 to 5000 nM

**Q.** And the IC50 [2]?
**A.** < 500 nM

**Q.** What about the IC50 ([3]; Homo sapiens, MDA-MB-453, 3 h) of the same compound?
**A.** < 50 nM

**Q.** Cc1cc(C(C)Nc2ccccc2C(=O)O)c2oc(-c3ccccc3)c(F)c(=O)c2c1 (stereo not drawn) [Example 111, 2-[1-(3-Fluoro-6-methyl-4-oxo-2-phenyl-chromen-8-yl)ethylamino]benzoic acid 2,2,2-trifluoroacetic acid] was tested. Which IC50 [1] did it give?
**A.** 1000 to 5000 nM

**Q.** What about the IC50 [2] of the same compound?
**A.** < 500 nM

**Q.** And the IC50 ([3]; Homo sapiens, MDA-MB-453, 3 h)?
**A.** < 50 nM

**Q.** Which IC50 [1] does the source give for Cc1cc([C@@H](C)Nc2ccccc2C(=O)O)c2oc(-c3ccccc3)c(C3COC3)c(=O)c2c1 [Example 112, 2-[[(1R)-1-[6-methyl-3-(oxetan-3-yl)-4-oxo-2-phenyl-chromen-8-yl]ethyl]amino]benzoic acid 2,2,2-trifluoroacetic acid] here?
**A.** 1000 to 5000 nM

**Q.** And the IC50 [2]?
**A.** < 500 nM

**Q.** And the IC50 ([3]; Homo sapiens, MDA-MB-453, 3 h)?
**A.** 50 to 100 nM

**Q.** Which results are given for Cc1cc([C@@H](C)Nc2ccc(Cl)nc2C(=O)O)c2oc(-c3ccc(F)c(F)c3)c(C)c(=O)c2c1 [Example 113, 6-Chloro-3-[[(1R)-1-[2-(3,4-difluorophenyl)-3,6-dimethyl-4-oxo-chromen-8-yl]ethyl]amino]pyridine-2-carboxylic acid]?
**A.** IC50 [1]: 1000 to 5000 nM; IC50 [2]: < 500 nM; IC50 ([3]; Homo sapiens, MDA-MB-453, 3 h): < 50 nM

**Q.** With Cc1cc([C@@H](C)Nc2ccc(Cl)nc2C(=O)O)c2oc(-c3ccccc3F)c(C)c(=O)c2c1 [Example 114, 6-Chloro-3-[[(1R)-1-[2-(2-fluorophenyl)-3,6-dimethyl-4-oxo-chromen-8-yl]ethyl]amino]pyridine-2-carboxylic acid 2,2,2-trifluoroacetic acid] as the compound, how does the IC50 [1] read?
**A.** 1000 to 5000 nM

**Q.** What about the IC50 [2] of the same compound?
**A.** < 500 nM

**Q.** And the IC50 ([3]; Homo sapiens, MDA-MB-453, 3 h)?
**A.** < 50 nM

**Q.** Which results are given for Cc1cc([C@@H](C)Nc2ccc(Cl)nc2C(=O)O)c2oc(-c3cccc(C#N)c3)c(C)c(=O)c2c1 [Example 115, 6-Chloro-3-[[(1R)-1-[2-(3-cyanophenyl)-3,6-dimethyl-4-oxo-chromen-8-yl]ethyl]amino]pyridine-2-carboxylic acid 2,2,2-trifluoroacetic acid]?
**A.** IC50 [1]: < 500 nM; IC50 [2]: < 500 nM; IC50 ([3]; Homo sapiens, MDA-MB-453, 3 h): < 50 nM

**Q.** Which IC50 [1] does the source give for Cc1cc([C@@H](C)Nc2ccccc2C(=O)O)c2oc(-c3cccc(C(C)(C)C#N)c3)c(C)c(=O)c2c1 [Example 117, 2-[[(1R)-1-[2-[3-(1-Cyano-1-methyl-ethyl)phenyl]-3,6-dimethyl-4-oxo-chromen-8-yl]ethyl]amino]benzoic acid 2,2,2-trifluoroacetic acid] here?
**A.** 1000 to 5000 nM

**Q.** What about the IC50 [2] of the same compound?
**A.** < 500 nM

**Q.** And the IC50 ([3]; Homo sapiens, MDA-MB-453, 3 h)?
**A.** < 50 nM

**Q.** What does the source list for Cc1cc([C@@H](C)Nc2ccccc2C(=O)O)c2oc(-c3cccc(C(C)(C)C(N)=O)c3)c(C)c(=O)c2c1 [Example 118, 2-[[(1R)-1-[2-[3-(2-Amino-1,1-dimethyl-2-oxo-ethyl)phenyl]-3,6-dimethyl-4-oxo-chromen-8-yl]ethyl]amino]benzoic acid 2,2,2-trifluoroacetic acid]?
**A.** IC50 [1]: 1000 to 5000 nM; IC50 [2]: < 500 nM; IC50 ([3]; Homo sapiens, MDA-MB-453, 3 h): 100 to 500 nM

**Q.** Which IC50 [1] does the source give for CC(=O)c1c(-c2ccccc2)oc2c([C@@H](C)Nc3ccccc3C(=O)O)cc(C)cc2c1=O [Example 119, 2-[[(1R)-1-(3-Acetyl-6-methyl-4-oxo-2-phenyl-chromen-8-yl)ethyl]amino]benzoic acid 2,2,2-trifluoroacetic acid] here?
**A.** 500 to 1000 nM

**Q.** What about the IC50 [2] of the same compound?
**A.** < 500 nM

**Q.** And the IC50 ([3]; Homo sapiens, MDA-MB-453, 3 h)?
**A.** < 50 nM

**Q.** What does the source list for Cc1cc([C@@H](C)Nc2cccnc2C(=O)O)c2oc(-c3ccc(F)c(F)c3)c(C)c(=O)c2c1 [Example 120, 3-[[(1R)-1-[2-(3,4-Difluorophenyl)-3,6-dimethyl-4-oxo-chromen-8-yl]ethyl]amino]pyridine-2-carboxylic acid]?
**A.** IC50 [1]: > 10000 nM; IC50 [2]: 1000 to 5000 nM; IC50 ([3]; Homo sapiens, MDA-MB-453, 3 h): 50 to 100 nM

**Q.** Cc1cc([C@@H](C)Nc2ccc(Cl)nc2C(=O)O)c2oc(-c3cccc(C#N)c3)c(C)c(=O)c2c1 [Example 121, 6-Chloro-3-[[(1R)-1-[2-(3-cyanophenyl)-3,6-dimethyl-4-oxo-chromen-8-yl]ethyl]amino]pyridine-2-carboxylic acid] was tested. Which IC50 [1] did it give?
**A.** 500 to 1000 nM

**Q.** What about the IC50 [2] of the same compound?
**A.** < 500 nM

**Q.** What about the IC50 [3] of the same compound?
**A.** < 50 nM

**Q.** For Cc1c(-c2ccccc2)oc2c([C@@H](C)Nc3cccnc3C(=O)O)cc(C(F)(F)F)cc2c1=O [Example 122, 3-[[(1R)-1-[3-Methyl-4-oxo-2-phenyl-6-(trifluoromethyl)-chromen-8-yl]ethyl]amino]pyridine-2-carboxylic acid], which IC50 [1] is on record?
**A.** > 10000 nM

**Q.** What about the IC50 [2] of the same compound?
**A.** 1000 to 5000 nM

**Q.** What about the IC50 ([3]; Homo sapiens, MDA-MB-453, 3 h) of the same compound?
**A.** 50 to 100 nM

**Q.** What does the source list for Cc1cc([C@@H](C)Nc2ccc(C(F)(F)F)nc2C(=O)O)c2oc(-c3ccc(F)c(F)c3)c(C)c(=O)c2c1 [Example 123, 3-[[(1R)-1-[2-(3,4-Difluorophenyl)-3,6-dimethyl-4-oxo-chromen-8-yl]ethyl]amino]-6-(trifluoromethyl)pyridine-2-carboxylic acid]?
**A.** IC50 [1]: 1000 to 5000 nM; IC50 [2]: < 500 nM; IC50 ([3]; Homo sapiens, MDA-MB-453, 3 h): < 50 nM

**Q.** What does the source list for Cc1cc([C@@H](C)Nc2ccc(C)nc2C(=O)O)c2oc(-c3ccc(F)c(F)c3)c(C)c(=O)c2c1 [Example 124, 3-[[(1R)-1-[2-(3,4-Difluorophenyl)-3,6-dimethyl-4-oxo-chromen-8-yl]ethyl]amino]-6-methyl-pyridine-2-carboxylic acid]?
**A.** IC50 [1]: 1000 to 5000 nM; IC50 [2]: < 500 nM; IC50 ([3]; Homo sapiens, MDA-MB-453, 3 h): < 50 nM
